From paper PMC8881610 (Nature Communications, 2022)

What was measured:
Assay in all cases: cAMP accumulation assay, GCGR WT, mutant or modified constructs
Assay type in all cases: cell-based
Parameters in all cases: V5 (C); 6×His (C); expressed in transfected cells; host or cells: HEK293T
GCGR [1] = target: GCGR (Homo sapiens, UniProt P47871, D195A); conditions: HEK-293T, GCGR D195A; HEK293T
Description: (§1) Human embryonic kidney 293 cells containing SV40 large T-antigen (HEK293T) were cultured in DMEM (Gibco) supplemented with 10% (v/v) fetal bovine serum (FBS, Gibco), 1 mM sodium pyruvate (Gibco) and 100 units/mL penicillin and 100 μg/mL streptomycin at 37 °C in 5% CO2. Chinese hamster ovary (CHO-K1) cells were cultured in F-12 (Gibco) containing 10% FBS, 100 units/mL penicillin and 100 μg/mL streptomycin at 37 °C in 5% CO2. For cAMP and receptor expression assays, HEK293T cells were seeded into 6-well cell culture plates at a density of 7 × 10^5 cells per well. After overnight incubation, cells were transfected with GIPR, GLP-1R or GCGR construct using Lipofectamine 2000 or Lipofectamine 3000 transfection reagent (Invitrogen). For whole-cell binding assay, CHO-K1 cells were seeded into 96-well fibronectin-treated cell culture plates at a density of 3 × 10^4 cells per well. After overnight incubation, cells were transfected with GIPR, GLP-1R or GCGR construct using Lipofectamine 2000 transfection reagent (Invitrogen). Following 24 h culturing, the transfected cells were ready for use. […]
(§2) For GIPR, GLP-1R and GCGR, multi-targeting agonist stimulated cAMP accumulation was measured by a LANCE Ultra cAMP kit (PerkinElmer). After 24 h culture, the transfected cells were seeded into 384-well microtiter plates at a density of 3,000 cells per well in HBSS supplemented with 5 mM HEPES, 0.1% (w/v) BSA or 0.1% (w/v) casein and 0.5 mM 3-isobutyl-1-methylxanthine. The cells were stimulated with different concentrations of peptide agonists for 40 min at RT. Eu-cAMP tracer and ULight^TM-anti-cAMP were then diluted by cAMP detection buffer and added to the plates separately to terminate the reaction. Plates were incubated at RT for 1 h and the fluorescence intensity measured at 620 nm and […] by an EnVision multilabel plate reader (PerkinElmer).

GCGR [2] = target: GCGR (Homo sapiens, UniProt P47871, D195A/Q142A/R199A); conditions: HEK-293T, GCGR Q142A/D195A/R199A; HEK293T
Description: as §1, §2

GCGR [3] = target: GCGR (Homo sapiens, UniProt P47871, K205A); conditions: GCGR K205A, HEK293T
Description: as §1, §2

GCGR [4] = target: GCGR (Homo sapiens, UniProt P47871, Q131A); conditions: GCGR Q131A, HEK293T
Description: as §1, §2

GCGR [5] = target: GCGR (Homo sapiens, UniProt P47871, Q293A); conditions: GCGR Q293A, HEK293T
Description: as §1, §2

GCGR [6] = target: GCGR (Homo sapiens, UniProt P47871, R199A); conditions: GCGR R199A, HEK293T
Description: as §1, §2

GCGR [7] = target: GCGR (Homo sapiens, UniProt P47871, W215A); conditions: HEK-293T, GCGR W215A; HEK293T
Description: as §1, §2

GCGR [8] = target: GCGR (Homo sapiens, UniProt P47871, W87A); conditions: HEK-293T, GCGR W87A; HEK293T
Description: as §1, §2

GCGR [9] = target: GCGR (Homo sapiens, UniProt P47871, Y138A); conditions: HEK-293T, GCGR Y138A; HEK293T
Description: as §1, §2

GCGR [10] = target: GCGR (Homo sapiens, UniProt P47871, Y145A); conditions: HEK-293T, GCGR Y145A; HEK293T
Description: as §1, §2

GCGR [11] = target: GCGR (Homo sapiens, UniProt P47871, Y202A); conditions: HEK-293T, GCGR Y202A; HEK293T
Description: as §1, §2

[12] = read-out: cAMP pEC50 (converted)

GCGR (Homo sapiens, UniProt P47871, K205A), sequence (P47871 26-477 K205A): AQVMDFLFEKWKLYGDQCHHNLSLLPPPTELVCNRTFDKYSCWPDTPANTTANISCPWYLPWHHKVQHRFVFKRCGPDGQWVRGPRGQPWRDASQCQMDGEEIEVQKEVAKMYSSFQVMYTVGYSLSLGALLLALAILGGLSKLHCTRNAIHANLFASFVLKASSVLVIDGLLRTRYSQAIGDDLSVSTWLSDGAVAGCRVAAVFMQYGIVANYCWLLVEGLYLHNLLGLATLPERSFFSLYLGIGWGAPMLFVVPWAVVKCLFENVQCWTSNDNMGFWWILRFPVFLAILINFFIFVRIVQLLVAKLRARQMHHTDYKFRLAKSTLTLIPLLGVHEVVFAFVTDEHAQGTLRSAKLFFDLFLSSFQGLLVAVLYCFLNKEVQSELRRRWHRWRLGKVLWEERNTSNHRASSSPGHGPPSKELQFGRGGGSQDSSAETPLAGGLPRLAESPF
GCGR (Homo sapiens, UniProt P47871, Q131A), sequence (P47871 26-477 Q131A): as the sequence (P47871 26-477 K205A) above, with Q106A, A180K counted along it
GCGR (Homo sapiens, UniProt P47871, R199A), sequence (P47871 26-477 R199A): as the sequence (P47871 26-477 K205A) above, with R174A, A180K counted along it
GCGR (Homo sapiens, UniProt P47871, Q293A), sequence (P47871 26-477 Q293A): as the sequence (P47871 26-477 K205A) above, with A180K, Q268A counted along it
GCGR (Homo sapiens, UniProt P47871, D195A/Q142A/R199A), sequence (P47871 26-477 Q142A/D195A/R199A): as the sequence (P47871 26-477 K205A) above, with Q117A, D170A, R174A, A180K counted along it
GCGR (Homo sapiens, UniProt P47871, W215A), sequence (P47871 26-477 W215A): as the sequence (P47871 26-477 K205A) above, with A180K, W190A counted along it
GCGR (Homo sapiens, UniProt P47871, W87A), sequence (P47871 26-477 W87A): as the sequence (P47871 26-477 K205A) above, with W62A, A180K counted along it
GCGR (Homo sapiens, UniProt P47871, Y138A), sequence (P47871 26-477 Y138A): as the sequence (P47871 26-477 K205A) above, with Y113A, A180K counted along it
GCGR (Homo sapiens, UniProt P47871, Y202A), sequence (P47871 26-477 Y202A): as the sequence (P47871 26-477 K205A) above, with Y177A, A180K counted along it
GCGR (Homo sapiens, UniProt P47871, Y145A), sequence (P47871 26-477 Y145A): as the sequence (P47871 26-477 K205A) above, with Y120A, A180K counted along it
GCGR (Homo sapiens, UniProt P47871, D195A), sequence (P47871 26-477 D195A): as the sequence (P47871 26-477 K205A) above, with D170A, A180K counted along it

CCCCCCCCCCCCCCCC(=O)N[C@@H](CCC(=O)NCCCC[C@H](NC(=O)[C@H](CC(=O)O)NC(=O)[C@H](CO)NC(=O)[C@@H](NC(=O)[C@H](Cc1ccccc1)NC(=O)[C@@H](NC(=O)CNC(=O)[C@H](CCC(N)=O)NC(=O)C(C)(C)NC(=O)[C@@H](N)Cc1c[nH]cn1)[C@@H](C)O)[C@@H](C)O)C(=O)N[C@@H](CO)C(=O)N[C@@H](CCCCN)C(=O)N[C@@H](Cc1ccc(O)cc1)C(=O)N[C@@H](CC(C)C)C(=O)N[C@@H](CC(=O)O)C(=O)N[C@@H](CCC(=O)O)C(=O)N[C@@H](CCCNC(=N)N)C(=O)N[C@@H](C)C(=O)N[C@@H](C)C(=O)N[C@@H](CCC(N)=O)C(=O)N[C@@H](CC(=O)O)C(=O)N[C@@H](Cc1ccccc1)C(=O)N[C@H](C(=O)N[C@@H](CCC(N)=O)C(=O)N[C@@H](Cc1c[nH]c2ccccc12)C(=O)N[C@@H](CC(C)C)C(=O)N[C@@H](CC(C)C)C(=O)N[C@@H](CC(=O)O)C(=O)NCC(=O)NCC(=O)N1CCC[C@H]1C(=O)N[C@@H](CO)C(=O)N[C@@H](CO)C(=O)NCC(=O)N[C@@H](C)C(=O)N1CCC[C@H]1C(=O)N1CCC[C@H]1C(=O)N1CCC[C@H]1C(=O)N[C@@H](CO)C(N)=O)C(C)C)C(=O)O [Peptide 20]
Emax (GCGR [1]): 102 ± 2.1%
Emax (GCGR [2]): 100 ± 2.37%
EC50 (GCGR [3]; [12]): 13.2 pM
Emax (GCGR [3]; HEK-293T): 101 ± 1.28%
EC50 (GCGR [4]; [12]): 28.2 pM
Emax (GCGR [4]; HEK-293T): 101 ± 1.59%
EC50 (GCGR [5]; [12]): 8.32 pM
Emax (GCGR [5]; HEK-293T): 99.5 ± 1.63%
EC50 (GCGR [6]; [12]): 12.9 pM
Emax (GCGR [6]; HEK-293T): 99.7 ± 1.47%
Emax (GCGR [7]): 99.6 ± 2.02%
Emax (GCGR [8]): 98.1 ± 1.54%
Emax (GCGR [9]): 101 ± 2.39%
Emax (GCGR [10]): 103 ± 1.79%
Emax (GCGR [11]): 103 ± 2.48%
